The target of data set [1] is T1, protein from Thermoanaerobacter italicus (clade 1) (Thermoanaerobacter thermocopriae, UniProt D3T426).
T1 sequence (D3T426 1-453): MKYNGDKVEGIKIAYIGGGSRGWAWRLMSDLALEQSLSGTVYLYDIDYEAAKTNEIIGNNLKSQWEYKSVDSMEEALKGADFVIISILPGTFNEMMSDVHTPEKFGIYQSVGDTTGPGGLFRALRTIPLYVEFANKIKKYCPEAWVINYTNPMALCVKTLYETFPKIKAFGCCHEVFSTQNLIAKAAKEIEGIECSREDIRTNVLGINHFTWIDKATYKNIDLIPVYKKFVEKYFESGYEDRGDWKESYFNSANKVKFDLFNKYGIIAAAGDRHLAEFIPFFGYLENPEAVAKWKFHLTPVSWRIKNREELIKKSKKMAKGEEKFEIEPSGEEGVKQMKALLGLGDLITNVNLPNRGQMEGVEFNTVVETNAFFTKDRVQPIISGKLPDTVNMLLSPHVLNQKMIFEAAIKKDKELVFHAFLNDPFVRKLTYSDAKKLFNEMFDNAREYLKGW
Description: colorimetric assay of α-galacturonidase activity. Type of data set: biochemical. Conditions: cofactors NAD+, Mn2+, DTT as for GH4 enzymes.

In data set [2] the target is T2, Clostridium phytofermentans Cphy3396 (clade 3) (Lachnoclostridium phytofermentans, UniProt A9KTB9).
T2 sequence (A9KTB9 1-466): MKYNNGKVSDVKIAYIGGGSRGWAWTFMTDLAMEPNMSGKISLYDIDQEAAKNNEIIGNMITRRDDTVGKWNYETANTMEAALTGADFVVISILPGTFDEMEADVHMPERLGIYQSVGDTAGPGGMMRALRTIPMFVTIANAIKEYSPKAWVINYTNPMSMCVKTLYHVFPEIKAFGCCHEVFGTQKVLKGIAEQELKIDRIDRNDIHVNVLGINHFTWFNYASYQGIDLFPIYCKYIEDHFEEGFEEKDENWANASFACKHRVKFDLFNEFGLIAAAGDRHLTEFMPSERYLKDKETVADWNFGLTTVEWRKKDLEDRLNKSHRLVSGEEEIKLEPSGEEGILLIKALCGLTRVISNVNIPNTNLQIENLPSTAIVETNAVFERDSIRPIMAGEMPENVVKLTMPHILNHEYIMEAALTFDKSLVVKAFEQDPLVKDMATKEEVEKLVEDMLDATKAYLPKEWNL
Description: colorimetric assay of α-galacturonidase activity. It counts as biochemical. Conditions: cofactors NAD+, Mn2+, DTT as for GH4 enzymes.

Substrate in data set [3]: O=C(O)[C@H]1O[C@H](Oc2ccc([N+](=O)[O-])cc2)[C@H](O)[C@@H](O)[C@H]1O
Description: discontinuous colorimetric assay, p-nitrophenol release. Type of data set: biochemical, Bacillus subtilis. The settings on record: 25 mM Tris-HCl pH 7.5, 0.1 mM NAD+, 1 mM MnCl2, 5 mM DTT, ~35-38 °C.

This is an account of results in article PMC3608401 (FEBS letters, 2013).

As to `O=C(O)[C@H]1O[C@H](Oc2ccc([N+](=O)[O-])cc2)[C@H](O)[C@@H](O)[C@H]1O` [pNPαGalUA], the “colorimetric assay of α-galacturonidase activity” value in data set [1] and in data set [2] was “pNPαGalUA served as substrate in all assays of protein activity” each time.

B1: LplD (LplDhis6) (Bacillus subtilis subsp. subtilis str. 168) (protein)
chain: MFHISTLDQIKIAYIGGGSQGWARSLMSDLSIDERMSGTVALYDLDFEAAQKNEVIGNHSGNGRWRYEAVSTLKKALSAADIVIISILPGSLDDMEVDVHLPERCGIYQSVGDTVGPGGIIRGLRAVPIFAEIARAIRDYAPESWVINYTNPMSVCTRVLYKVFPGIKAIGCCHEVFGTQKLLAEMVTERLGIEVPRREDIRVNVLGINHFTWITKASYRHIDLLPIFREFSAHYGESGYELEGECWRDSVFCSAHRVAFDLFETYGAIPAAGDRHLAEFLPGPYLKQPEVWKFHLTPISFRKQDRAEKRQETERLIVQQRGVAEKASGEEGVNIIAALLGLGELVTNVNMPNQGQVLNLPIQAIVETNAFITRNRVQPILSGALPKGVEMLAARHISNQEAVADAGLTKDTGLAFQAFLNDPLVQIDRSDAEQLFNDMLQCIMQS
What is called Km is the substrate concentration at which the rate is half of its maximum. One may read the kcat as the maximal rate divided by the concentration of active sites. As to B1, in data set [3], the Km came out at 0.62 ± 0.11 µM and the kcat turned out to be 3.6 s⁻¹.
